According to patent US12319655B2, “RAF kinase inhibitors and methods of use thereof” (Deciphera Pharmaceuticals, LLC, priority 2021, dated 2025):

Legend:
[1] = biological target: B-Raf kinase (SEQ. ID NO: 2) (Homo sapiens (Human), UniProt P15056); assay: Biochemical Assay for B-Raf (2); settings: Table J, biochemical assay (2); read-out: BRAF (2)
Experimental: Biochemical Assay for B-Raf (2)
Activity of B-Raf kinase (SEQ. ID NO: 2) was determined spectroscopically using a coupled pyruvate kinase/lactate dehydrogenase assay that continuously monitors the ATP hydrolysis-dependent oxidation of NADH (e.g., Schindler et al., Science, 2000, 289, 1938-1942). Assays were conducted in 384-well plates (25 μL final volume) using 2 nM B-Raf (Sigma), 1.5 units pyruvate kinase, 2.1 units lactate dehydrogenase, 1 mM phosphoenol pyruvate, 0.7 mM NADH, 50 nM MEK (SignalChem), and 1 mM ATP in assay buffer (100 mM Tris, pH 7.5, 15 mM MgCl2, 0.5 mM DTT, 0.1% octyl-glucoside, 0.002% (w/v) BSA, and 0.002% Triton X-100). Inhibition of B-Raf was measured by adding serial diluted test compound (final assay concentration of 1% DMSO). A decrease in absorption at 340 nm was monitored hourly for 4 h at 30° C. on a multi-mode microplate reader (BioTek). The reaction rate was calculated using the 2 to 3 h time frame. The reaction rate at each concentration of compound was converted to percent inhibition using controls (i.e., reaction with no test compound and reaction with a known inhibitor) and IC50 values were calculated by fitting a four-parameter sigmoidal curve to the data using Prism (GraphPad software).

[2] = test system: A375 cells; assay: A375 Cell Proliferation Assay (2); type: cell-based; settings: Homo sapiens, A-375
Experimental: A375 Cell Proliferation Assay (2)
A375 cells (catalog (#CRL-1619) are obtained from the American Type Culture Collect (ATTC, Manassas, VA). Briefly, cells were grown in DMEM High Glucose supplemented with 10% characterized fetal bovine serum (Invitrogen, Carlsbad, CA) and 1% Penicillin/Streptomycin/L-Glutamine at 37° C., 5% CO2, and 95% humidity. Cells are expanded until reaching 70-95% confluency at which point they are sub-cultured or harvested for assay use. Using the Beckman Coulter Echo 650, a serial dilution of test compound is dispensed into a 384-well black clear bottom plate in triplicate. Six hundred twenty-five cells are added per well in 50 μL complete growth medium in the 384-well plate. Plates are incubated for 67-72 h at 37° C., 5% CO2, and 95% humidity. At the end of the incubation, 10 μL of a 440 μM solution of resazurin (Sigma, St. Louis, MO) in PBS is added to each well of the plate and plates are incubated for an additional 3-6 h at 37° C., 5% CO2, and 95% humidity. Plates are read on a Synergy2 or equivalent reader (Biotek, Winooski VT) using an excitation of 540 nm and an emission of 600 nm. Data is analyzed using Prism software (GraphPad, San Diego, CA) to calculate IC50 values.

B-Raf kinase (SEQ. ID NO: 2), sequence (P15056 416-766): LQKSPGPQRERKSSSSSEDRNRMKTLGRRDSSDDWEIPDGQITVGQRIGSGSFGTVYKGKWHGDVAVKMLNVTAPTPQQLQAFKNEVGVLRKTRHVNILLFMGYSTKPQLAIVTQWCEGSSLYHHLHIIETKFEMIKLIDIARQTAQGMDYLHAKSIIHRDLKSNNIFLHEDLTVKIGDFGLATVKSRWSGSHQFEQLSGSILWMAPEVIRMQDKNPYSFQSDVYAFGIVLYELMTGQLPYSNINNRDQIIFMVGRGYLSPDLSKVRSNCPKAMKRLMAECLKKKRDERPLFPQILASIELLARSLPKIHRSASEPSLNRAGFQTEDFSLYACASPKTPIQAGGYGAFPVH

IC50 [1] [nM] | IC50 [2] [nM] | Compound
100 to 500 | 100 to 500 | Cc1ccc(NC(=O)c2ccnc(C(C)(C)F)c2)cc1-c1ccnc(-c2ccnc(C(=O)NC3CN(C)C3)c2)c1 [Example 450]
≤ 100 | ≤ 100 | Cc1ccc(NC(=O)c2ccnc(C(C)(C)F)c2)cc1-c1ccnc(-c2ccnc(C(=O)NCC#N)c2)c1 [Example 451]
≤ 100 | 100 to 500 | CNC(=N)c1cc(-c2cc(-c3cc(NC(=O)c4ccnc(C(C)(C)F)c4)ccc3C)ccn2)ccn1 [Example 452]
≤ 100 | 100 to 500 | Cc1ccc(NC(=O)c2ccnc(C(C)(C)F)c2)cc1-c1ccnc(-c2ccnc(C(=O)NCCN(C)C)c2)c1 [Example 453]
≤ 100 | ≤ 100 | Cc1ncc(NC(=O)c2ccnc(C(C)(C)F)c2)cc1-c1ccnc(-c2ccnc(NC(=O)C3CC3)c2)c1 [Example 454]
≤ 100 | ≤ 100 | Cc1ccc(NC(=O)c2ccnc(C(C)(C)F)c2)cc1-c1ccnc(-c2ccnc(NC(=O)C3CC3)c2)c1 [Example 455]
≤ 100 | ≤ 100 | Cc1ccc(NC(=O)c2ccnc(C(C)(C)C#N)c2)cc1-c1ccnc(-c2ccnc(NC(=O)C3CC3)c2)c1 [Example 456]
≤ 100 | ≤ 100 | Cc1ccc(NC(=O)c2ccnc(C3(C#N)CC3)c2)cc1-c1ccnc(-c2ccnc(NC(=O)C3CC3)c2)c1 [Example 457]
≤ 100 | 100 to 500 | Cc1ccc(NC(=O)c2ccnc(C3CC3)c2)cc1-c1ccnc(-c2ccnc(NC(=O)C3CC3)c2)c1 [Example 458]
≤ 100 | ≤ 100 | Cc1ccc(NC(=O)c2ccnc(C(C)(F)F)c2)cc1-c1ccnc(-c2ccnc(NC(=O)C3CC3)c2)c1 [Example 459]
≤ 100 | 100 to 500 | CNC(=O)c1cc(-c2cc(-c3cc(NC(=O)c4ccnc(C5CC5)c4)ccc3C)ccn2)ccn1 [Example 460]
≤ 100 | ≤ 100 | Cc1ncc(NC(=O)c2ccnc(C3(C#N)CC3)c2)cc1-c1ccnc(-c2ccnc(NC(=O)C3CC3)c2)c1 [Example 461]
100 to 500 | 1000 to 10000 | CNC(=O)c1cc(-c2cc(-c3cc(NC(=O)c4ccnc(C5CC5)c4)cnc3C)ccn2)ccn1 [Example 462]
100 to 500 | 500 to 1000 | CNC(=O)c1cc(-c2cc(-c3cc(NC(=O)c4ccnc(C(C)(F)F)c4)cnc3C)ccn2)ccn1 [Example 463]
100 to 500 | 100 to 500 | CNC(=O)c1cc(-c2cc(-c3cc(NC(=O)c4ccnc(C5(C#N)CC5)c4)cnc3C)ccn2)ccn1 [Example 464]
100 to 500 | 500 to 1000 | CNC(=O)c1cc(-c2cc(-c3cc(NC(=O)c4ccnc(C(C)C)c4)cnc3C)ccn2)ccn1 [Example 465]
≤ 100 | 100 to 500 | Cc1ncc(NC(=O)c2ccnc(C(C)(F)F)c2)cc1-c1ccnc(-c2ccnc(NC(=O)C3CC3)c2)c1 [Example 466]
≤ 100 | ≤ 100 | Cc1ccc(NC(=O)c2ccnc(C(C)C)c2)cc1-c1ccnc(-c2ccnc(NC(=O)C3CC3)c2)c1 [Example 467]

IC50 [1] [nM] | IC50 [2] [nM] | Compound
≤ 100 | 100 to 500 | Cc1ncc(NC(=O)c2ccnc(C(C)C)c2)cc1-c1ccnc(-c2ccnc(NC(=O)C3CC3)c2)c1 [Example 468]
≤ 100 | 100 to 500 | CNC(=O)c1cc(-c2cc(-c3cc(NC(=O)c4ccnc(C(C)(C)F)c4)ccc3C)c(F)cn2)ccn1 [Example 469]
100 to 500 | 100 to 500 | CNC(=O)c1cc(-c2cc(-c3cc(NC(=O)c4ccnc(C(C)(C)F)c4)ccc3C)cc(C)n2)ccn1 [Example 470]
1000 to 10000 | 1000 to 10000 | CNC(=O)c1cc(-c2cc(-c3cc(NC(=O)c4ccnc(C(C)(C)F)c4)ccc3C(F)(F)F)ccn2)ccn1 [Example 471]
500 to 1000 | 100 to 500 | CNC(=O)c1cc(-c2cc(-c3cc(NC(=O)c4ccnc(C(C)(C)F)c4)ccc3C)c(C)cn2)ccn1 [Example 472]
100 to 500 | ≤ 100 | CNC(=O)c1cc(-c2cc(-c3cc(NC(=O)c4ccnc(C(C)(C)F)c4)ccc3C)cnn2)ccn1 [Example 473]
≤ 100 | ≤ 100 | CNC(=O)c1cc(-c2cc(-c3cc(NC(=O)c4ccnc(C(C)(C)F)c4)ccc3C)ncn2)ccn1 [Example 474]
1000 to 10000 | 1000 to 10000 | CNC(=O)c1cc(-c2cc(-c3cc(F)cc(NC(=O)c4ccnc(C(C)(C)F)c4)c3F)ccn2)ccn1 [Example 475]
≤ 100 | ≤ 100 | Cc1ccc(NC(=O)c2ccnc(C(C)(C)F)c2)cc1-c1ccnc(-c2ccnc(C(N)=O)c2)c1 [Example 476]
≤ 100 | 1000 to 10000 | CNC(=O)c1cc(-c2cc(-c3cc(NC(=O)c4cnnc(C(F)(F)F)c4)ccc3C)ccn2)ccn1 [Example 477]
100 to 500 | 1000 to 10000 | CNC(=O)c1cc(-c2cc(-c3cc(NC(=O)c4ccnc(C(C)(C)F)c4)cc(F)c3F)ccn2)ccn1 [Example 478]
100 to 500 | 100 to 500 | CNC(=O)c1cc(-c2cc(-c3cc(NC(=O)c4ccnc(C(C)(C)F)c4)ccc3F)ccn2)ccn1 [Example 479]
100 to 500 | 100 to 500 | CNC(=O)c1cc(-c2cc(-c3cc(NC(=O)c4ccnc(C(C)(C)F)c4)cc(F)c3C)ccn2)ccn1 [Example 480]
1000 to 10000 | 1000 to 10000 | CNC(=O)c1cc(-c2cc(-c3cc(NC(=O)c4ccnc(C(C)(C)F)c4)ccn3)ccn2)ccn1 [Example 481]
100 to 500 | 100 to 500 | CNC(=O)c1cc(-c2cc(-c3cc(NC(=O)c4ccnc(C(C)(C)F)c4)c(F)cc3F)ccn2)ccn1 [Example 482]
100 to 500 | 1000 to 10000 | Cc1cc(-c2cc(NC(=O)c3ccnc(C(C)(C)F)c3)ccc2C)cc(-c2ccnc(C#N)c2)n1 [Example 483]
≤ 100 | ≤ 100 | Cc1cc(-c2cc(NC(=O)c3ccnc(C(C)(C)F)c3)ccc2C)cc(-c2ccnc(C(N)=O)c2)n1 [Example 484]
